Source: US10738015B2, “1,3-diaza-spiro-[3.4]-octane derivatives” (priority 2017, dated 2020)
pKi: −log10 of the molar value. Read-outs that look alike come from different tables or passages of the source.

Columns and labels:
[1] = target: human mu-opioid peptide (hMOP) receptor (Homo sapiens (Human), UniProt P35372); test: hMOP receptor binding assay (SPA); details: for Ki: displacement of [3H]naloxone, hMOP receptor membranes, read-out: hMOP Ki [nM] or % inhibition at 1 μM
Procedure: Human Mu-Opioidpeptide (hMOP) Receptor Binding Assay
The hMOP receptor binding assay was performed as homogeneous SPA-assay (scintillation proximity assay) using the assay buffer 50 mM TRIS-HCl (pH 7.4) supplemented with 0.052 mg/ml bovine serum albumin (Sigma-Aldrich Co. St. Louis, Mo.). […] The assay was started by adding wheat germ agglutinin coated SPA beads (GE Healthcare UK Ltd. Buckinghamshire. UK) which had been preloaded with hMOP receptor membranes (PerkinElmer Life Sciences. Inc. Boston, Mass. USA).

[2] = target: human nociceptin/orphanin FQ peptide (hNOP) receptor (Homo sapiens (Human), UniProt P41146); test: hNOP receptor binding assay (SPA); details: for Ki: displacement of [leucyl-3H]nociceptin, hNOP receptor membranes, read-out: hNOP Ki [nM] or % inhibition at 1 μM
Procedure: Human Nociceptin/Orphanin FQ Peptide (hNOP) Receptor Binding Assay
The hNOP receptor binding assay was performed as homogeneous SPA-assay (scintillation proximity assay) using the assay buffer 50 mM TRIS-HCl, 10 mM MgCl2, 1 mM EDTA (pH 7.4). The final assay volume (250 μl/well) included 0.5 nM of [leucyl-^3H]nociceptin as ligand (PerkinElmer Life Sciences. Inc. Boston, Mass. USA) and either test compound in dilution series or 1 μM unlabelled nociceptin for determination of unspecific binding. The test compound was diluted with 25% DMSO in H2O to yield a final 0.5% DMSO concentration which also served as a respective vehicle control. The assay was started by adding wheat germ agglutinin coated SPA beads (GE Healthcare UK Ltd. Buckinghamshire. UK) which had been preloaded with hNOP receptor membranes (PerkinElmer Life Sciences. Inc. Boston, Mass. USA). After incubation for 60 minutes at RT and centrifugation for 20 minutes at 500 rpm the signal rate was measured by means of a 1450 Microbeta Trilux ß-counter (PerkinElmer Life Sciences/Wallac. Turku. Finland). Half-maximal inhibitory concentration (IC50) values reflecting 50% displacement of [^3H]nociceptin-specific receptor binding were calculated by nonlinear regression analysis and Ki values were calculated by using the Cheng-Prusoff equation. (Cheng and Prusoff. 1973).

human mu-opioid peptide (hMOP) receptor, sequence (P35372 whole entry): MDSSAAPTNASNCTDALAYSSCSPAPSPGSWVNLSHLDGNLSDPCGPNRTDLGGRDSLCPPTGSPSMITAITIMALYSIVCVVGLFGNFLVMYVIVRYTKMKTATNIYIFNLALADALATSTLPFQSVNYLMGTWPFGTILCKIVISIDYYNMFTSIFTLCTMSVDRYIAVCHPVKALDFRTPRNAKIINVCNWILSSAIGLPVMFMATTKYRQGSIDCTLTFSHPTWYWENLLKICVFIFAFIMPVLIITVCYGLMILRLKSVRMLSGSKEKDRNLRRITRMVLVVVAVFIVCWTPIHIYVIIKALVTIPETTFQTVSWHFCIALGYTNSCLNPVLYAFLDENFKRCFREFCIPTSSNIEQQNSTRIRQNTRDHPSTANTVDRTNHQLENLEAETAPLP

Question: How did the Ki [1] turn out when `CN(C)[C@]1(c2cccc(F)c2)C[C@@]2(CN(CCS(C)(=O)=O)C(=O)N2CC2CC2)C1` [SC-31, cis-5-(cyclopropylmethyl)-2-(dimethylamino)-2-(3-fluorophenyl)-7-(2-(methylsulfonyl)ethyl)-5,7-diazaspiro[3.4]octan-6-one] was run?
Answer: 150 nM

Question: What about the pKi [2] of the same compound?
Answer: 7.82

Question: For `CN(C)[C@]1(c2ccccc2)C[C@@]2(CN(c3ccc(OC(F)(F)F)cn3)C(=O)N2CC2CC2)C1` [SC-32, Cis-5-(cyclopropylmethyl)-2-(dimethylamino)-2-phenyl-7-(5-(trifluoromethoxy)pyridin-2-yl)-5,7-diazaspiro[3.4]octan-6-one], which Ki [1] is on record?
Answer: 100 nM

Question: What about the Ki [2] of the same compound?
Answer: 36 nM

Question: `CN(C)[C@]1(c2cccc(F)c2)C[C@@]2(CN(CC3(F)COC3)C(=O)N2CC2CC2)C1` [SC-33, Cis-5-(cyclopropylmethyl)-2-(dimethylamino)-7-((3-fluorooxetan-3-yl)methyl)-2-(3-fluorophenyl)-5,7-diazaspiro[3.4]octan-6-one] was tested. Which Ki [1] did it give?
Answer: 115 nM

Question: And the Ki [2]?
Answer: 23 nM

Question: What does the source list for `CN(C)[C@]1(c2ccccc2)C[C@@]2(CN(c3ccc(C4CC4)nc3)C(=O)N2CC2CC2)C1` [SC-34, Cis-5-(cyclopropylmethyl)-7-(6-cyclopropylpyridin-3-yl)-2-(dimethylamino)-2-phenyl-5,7-diazaspiro[3.4]octan-6-one]?
Answer: Ki [1]: 50 nM; Ki [2]: 17 nM

Question: How did the Ki [1] turn out when `Cc1cc(C2CC2)ncc1N1C[C@]2(C[C@](c3ccccc3)(N(C)C)C2)N(CC2CC2)C1=O` [SC-35, Cis-7-(6-cyclopropyl-4-methylpyridin-3-yl)-5-(cyclopropylmethyl)-2-(dimethylamino)-2-phenyl-5,7-diazaspiro[3.4]octan-6-one] was run?
Answer: 185 nM

Question: And the Ki [2]?
Answer: 19 nM

Question: With `Cc1cc(C2CC2)ncc1N1C[C@]2(C[C@](c3ccccc3)(N(C)C)C2)N(CC2(F)COC2)C1=O` [SC-36, Cis-7-(6-cyclopropyl-4-methylpyridin-3-yl)-2-(dimethylamino)-5-((3-fluorooxetan-3-yl)methyl)-2-phenyl-5,7-diazaspiro[3.4]octan-6-one] as the compound, how does the Ki [1] read?
Answer: 330 nM

Question: And the Ki [2]?
Answer: 10 nM

Question: How did the pKi [1] turn out when `COC(C)(C)CN1C[C@]2(C[C@](c3cccc(F)c3)(N(C)C)C2)N(CC2CC2)C1=O` [SC-37, Cis-5-(cyclopropylmethyl)-2-(dimethylamino)-2-(3-fluorophenyl)-7-(2-methoxy-2-methylpropyl)-5,7-diazaspiro[3.4]octan-6-one] was run?
Answer: 7.36

Question: What about the Ki [2] of the same compound?
Answer: 37 nM

Question: How did the Ki [1] turn out when `CN(C)[C@]1(c2ccccc2)C[C@@]2(CN(c3cncc(C(F)(F)F)c3)C(=O)N2CC2CC2)C1` [SC-39, Cis-5-(cyclopropylmethyl)-2-(dimethylamino)-2-phenyl-7-[5-(trifluoromethyl)pyridin-3-yl]-5,7-diazaspiro[3.4]octan-6-one] was run?
Answer: 48 nM

Question: And the Ki [2]?
Answer: 5 nM

Question: Which Ki [1] does the source give for `CN(C)[C@]1(c2ccccc2)C[C@@]2(CN(c3cnc(C#N)c(C(F)(F)F)c3)C(=O)N2CC2CC2)C1` [SC-40, Cis-5-[5-(cyclopropylmethyl)-2-(dimethylamino)-6-oxo-2-phenyl-5,7-diazaspiro[3.4]octan-7-yl]-3-(trifluoromethyl)pyridine-2-carbonitrile] here?
Answer: 102 nM

Question: What about the Ki [2] of the same compound?
Answer: 6 nM

Question: Which results are given for `CN(C)[C@]1(c2cccc(F)c2)C[C@@]2(CN(Cc3ccc(N4CCOCC4)cc3)C(=O)N2)C1` [SC-41, cis-2-(dimethylamino)-2-(3-fluorophenyl)-7-(4-morpholinobenzyl)-5,7-diazaspiro[3.4]octan-6-one]?
Answer: Ki [1]: 465 nM; pKi [2]: 7.68

Question: Which results are given for `CN(C)[C@]1(c2cccc(F)c2)C[C@@]2(CN(CC3(O)CCC3)C(=O)N2CC2CC2)C1` [SC-42, Cis-5-(cyclopropylmethyl)-2-(dimethylamino)-2-(3-fluorophenyl)-7-[(1-hydroxycyclobutyl)methyl]-5,7-diazaspiro[3.4]octan-6-one]?
Answer: Ki [1]: 125 nM; Ki [2]: 21 nM

Question: For `CN(C)[C@]1(c2ccccc2)C[C@@]2(CN(c3cnc(-c4ccncc4)nc3)C(=O)N2CC2CC2)C1` [SC-43, Cis-5-(cyclopropylmethyl)-2-(dimethylamino)-2-phenyl-7-(2-pyridin-4-ylpyrimidin-5-yl)-5,7-diazaspiro[3.4]octan-6-one], which Ki [1] is on record?
Answer: 83 nM

Question: What about the Ki [2] of the same compound?
Answer: 31 nM

Question: What does the source list for `CN(C)[C@]1(c2cccc(F)c2)C[C@@]2(CN(CCC#N)C(=O)N2CC2CC2)C1` [SC-44, cis-3-(5-(cyclopropylmethyl)-2-(dimethylamino)-2-(3-fluorophenyl)-6-oxo-5,7-diazaspiro[3.4]octan-7-yl)propanenitrile]?
Answer: pKi [1]: 6.96; Ki [2]: 15 nM

Question: Which results are given for `CN(C)[C@]1(c2ccccc2)C[C@@]2(CN(CCC#N)C(=O)N2CC2CC2)C1` [SC-45, Cis-3-[5-(cyclopropylmethyl)-2-(dimethylamino)-6-oxo-2-phenyl-5,7-diazaspiro[3.4]octan-7-yl]propanenitrile]?
Answer: Ki [1]: 37 nM; Ki [2]: 25 nM

Question: Which results are given for `CN(C)[C@]1(c2ccccc2)C[C@@]2(CN(CC3(O)CCC3)C(=O)N2CC2CC2)C1` [SC-46, Cis-5-(cyclopropylmethyl)-2-(dimethylamino)-7-[(1-hydroxycyclobutyl)methyl]-2-phenyl-5,7-diazaspiro[3.4]octan-6-one]?
Answer: Ki [1]: 48 nM; Ki [2]: 29 nM

Question: For `CN(C)[C@]1(c2cccc(F)c2)C[C@@]2(CN(CCC3COC3)C(=O)N2CC2CC2)C1` [SC-47, Cis-5-(cyclopropylmethyl)-2-(dimethylamino)-2-(3-fluorophenyl)-7-[2-(oxetan-3-yl)ethyl]-5,7-diazaspiro[3.4]octan-6-one], which Ki [1] is on record?
Answer: 44 nM

Question: What about the Ki [2] of the same compound?
Answer: 9 nM
